Experimental data from PubChem BioAssay AID330 (DTP/NCI, 2004).
Where “and” joins values, the source holds several entries; their conditions need not be identical. Identical values can stand only once. Inconclusive results and toxic doses are left out.

Tested on: P388 leukemia ip, CD2F1 mice, survival T/C
Assay: NCI In Vivo Anticancer Drug Screen. Data for tumor model P388 Leukemia (intraperitoneal) in CD2F1 (CDF1) mice
Conditions: endpoint: median survival time, higher = longer survival
Procedure, shortened: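 Mice carrying the transplanted tumor received test compound or vehicle. Survival was recorded in each group, and the value is the treated-group measurement divided by that of the vehicle-treated control group.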

[1] = dose: 100.0 mg/kg/injection, schedule: Q01DX001 (ip), vehicle: Klucel (hydroxypropylcellulose) (HPC)
[2] = dose: 50.0 mg/kg/injection, schedule: Q01DX005 (ip), vehicle: Klucel (hydroxypropylcellulose) (HPC)
[3] = dose: 100.0 mg/kg/injection, schedule: Q01DX005 (ip), vehicle: Klucel (hydroxypropylcellulose) (HPC)
[4] = dose: 200.0 mg/kg/injection, schedule: Q01DX005 (ip), vehicle: Klucel (hydroxypropylcellulose) (HPC)
[5] = dose: 100.0 mg/kg/injection, schedule: Q04DX002 (ip), vehicle: saline with Tween-80
[6] = dose: 200.0 mg/kg/injection, schedule: Q04DX002 (ip), vehicle: saline with Tween-80
[7] = dose: 400.0 mg/kg/injection, schedule: Q04DX002 (ip), vehicle: saline with Tween-80
[8] = dose: 25.0 mg/kg/injection, schedule: Q01DX009 (ip), vehicle: Klucel (hydroxypropylcellulose) (HPC)
[9] = dose: 50.0 mg/kg/injection, schedule: Q01DX009 (ip), vehicle: Klucel (hydroxypropylcellulose) (HPC)
[10] = dose: 60.0 mg/kg/injection, schedule: Q01DX005 (ip), vehicle: saline
[11] = dose: 12.5 mg/kg/injection, schedule: Q01DX009 (ip), vehicle: saline
[12] = dose: 25.0 mg/kg/injection, schedule: Q01DX009 (ip), vehicle: saline
[13] = dose: 12.5 mg/kg/injection, schedule: Q01DX009 (ip), vehicle: saline with Tween-80
[14] = dose: 25.0 mg/kg/injection, schedule: Q01DX009 (ip), vehicle: saline with Tween-80
[15] = dose: 50.0 mg/kg/injection, schedule: Q01DX005 (ip), vehicle: Klucel + Tween-80
[16] = dose: 100.0 mg/kg/injection, schedule: Q01DX005 (ip), vehicle: Klucel + Tween-80
[17] = dose: 200.0 mg/kg/injection, schedule: Q01DX005 (ip), vehicle: Klucel + Tween-80
[18] = dose: 50.0 mg/kg/injection, schedule: Q01DX009 (ip), vehicle: saline with Tween-80
[19] = dose: 100.0 mg/kg/injection, schedule: Q01DX009 (ip), vehicle: Klucel (hydroxypropylcellulose) (HPC)
[20] = dose: 50.0 mg/kg/injection, schedule: Q01DX009 (ip), vehicle: saline
[21] = dose: 100.0 mg/kg/injection, schedule: Q01DX009 (ip), vehicle: saline
[22] = dose: 200.0 mg/kg/injection, schedule: Q01DX009 (ip), vehicle: saline
[23] = dose: 60.0 mg/kg/injection, schedule: Q01DX005 (ip), vehicle: saline with Tween-80
[24] = dose: 120.0 mg/kg/injection, schedule: Q01DX005 (ip), vehicle: saline with Tween-80
[25] = dose: 200.0 mg/kg/injection, schedule: Q01DX009 (ip), vehicle: Klucel (hydroxypropylcellulose) (HPC)

CSc1ccc(/C=N/N=c2ccn(-c3ccc(Cl)cc3)cc2)cc1
T/C (dose: 25.0 mg/kg/injection, schedule: Q01DX001 (ip), vehicle: Klucel (hydroxypropylcellulose) (HPC)): 100 % of control | T/C (dose: 50.0 mg/kg/injection, schedule: Q01DX001 (ip), vehicle: Klucel (hydroxypropylcellulose) (HPC)): 102 % of control | T/C [1]: 100 % of control and 91 % of control

CN(C(=[Se])[Se]C(=[Se])N(C)C1CCCCC1)C1CCCCC1
T/C (dose: 15.0 mg/kg/injection, schedule: Q01DX005 (ip), vehicle: Klucel (hydroxypropylcellulose) (HPC)): 95 % of control | T/C (dose: 30.0 mg/kg/injection, schedule: Q01DX005 (ip), vehicle: Klucel (hydroxypropylcellulose) (HPC)): 96 % of control | T/C (dose: 60.0 mg/kg/injection, schedule: Q01DX005 (ip), vehicle: Klucel (hydroxypropylcellulose) (HPC)): 100 % of control and 93 % of control | T/C (dose: 120.0 mg/kg/injection, schedule: Q01DX005 (ip), vehicle: Klucel (hydroxypropylcellulose) (HPC)): 99 % of control

Cc1nc(Nc2ccc(F)cc2)c2c(C)c(Cc3ccccc3)[nH]c2n1
T/C [2]: 88 % of control | T/C [3]: 89 % of control | T/C [4]: 94 % of control

CCOc1cccc2c1C(=O)c1cccc(OCC)c1C2(O)C#Cc1ccccc1 (stereo unspecified)
T/C [5]: 90 % of control | T/C [6]: 87 % of control | T/C [7]: 86 % of control

COc1ccc(/C=N\NC(=O)C(=O)N/N=C\c2ccc(OC)c(OC)c2)cc1OC
T/C (dose: 12.5 mg/kg/injection, schedule: Q01DX009 (ip), vehicle: Klucel (hydroxypropylcellulose) (HPC)): 93 % of control | T/C [8]: 93 % of control | T/C [9]: 86 % of control and 88 % of control

CN=C(N)N/N=C(\c1ccccc1)c1ccc(Cl)c([N+](=O)[O-])c1
T/C (dose: 12.5 mg/kg/injection, schedule: Q04DX002 (ip), vehicle: saline with Tween-80): 105 % of control | T/C (dose: 25.0 mg/kg/injection, schedule: Q04DX002 (ip), vehicle: saline with Tween-80): 105 % of control | T/C (dose: 50.0 mg/kg/injection, schedule: Q04DX002 (ip), vehicle: saline with Tween-80): 99 % of control | T/C [5]: 97 % of control | T/C [6]: 98 % of control | T/C [7]: 113 % of control

[O-][N+](O)=C1c2ccccc2-c2ccccc21
T/C (dose: 100.0 mg/kg/injection, schedule: Q04DX003 (ip), vehicle: saline): 100 % of control | T/C (dose: 200.0 mg/kg/injection, schedule: Q04DX003 (ip), vehicle: saline): 103 % of control | T/C (dose: 400.0 mg/kg/injection, schedule: Q04DX003 (ip), vehicle: saline): 102 % of control

CCCCCCCCOc1cc2cc(O)oc3cc(=O)cc(o1)c23
T/C [10]: 108 % of control | T/C (dose: 120.0 mg/kg/injection, schedule: Q01DX005 (ip), vehicle: saline): 122 % of control

COC1=C2C[C@@H](C)C[C@@H](OC)[C@@H](O)[C@H](C)/C=C(\C)[C@@H](OC(N)=O)[C@H](OC)/C=C\C=C(/C)C(=O)NC(=CC1=O)C2=O
T/C (dose: 0.75 mg/kg/injection, schedule: Q01DX009 (ip), vehicle: saline with Tween-80): 114 % of control | T/C (dose: 1.5 mg/kg/injection, schedule: Q01DX009 (ip), vehicle: saline with Tween-80): 115 % of control

O=[N+]([O-])c1cccc2c[n+](Cc3ccc(Br)cc3)ccc12
T/C (dose: 6.25 mg/kg/injection, schedule: Q01DX009 (ip), vehicle: saline): 107 % of control | T/C [11]: 117 % of control | T/C [12]: 118 % of control

Cc1ccc(C(SCC(N)C(=O)O)(c2ccccc2)c2ccccc2)cc1 (stereo unspecified)
T/C [13]: 186 % of control | T/C [14]: 168 % of control | T/C (dose: 50.0 mg/kg/injection, schedule: Q04DX003 (ip), vehicle: saline with Tween-80): 177 % of control | T/C (dose: 100.0 mg/kg/injection, schedule: Q04DX003 (ip), vehicle: saline with Tween-80): 218 % of control | T/C (dose: 132.0 mg/kg/injection, schedule: Q04DX003 (ip), vehicle: saline with Tween-80): 195 % of control | T/C (dose: 200.0 mg/kg/injection, schedule: Q04DX003 (ip), vehicle: saline with Tween-80): 254 % of control and 272 % of control | T/C (dose: 300.0 mg/kg/injection, schedule: Q04DX003 (ip), vehicle: saline with Tween-80): 263 % of control

COc1ccccc1C(=O)CCN(C)C
T/C (dose: 15.0 mg/kg/injection, schedule: Q01DX005 (ip), vehicle: saline): 98 % of control | T/C (dose: 30.0 mg/kg/injection, schedule: Q01DX005 (ip), vehicle: saline): 112 % of control | T/C [10]: 114 % of control and 97 % of control

CCCCCCCC(=O)Nc1nnc(SCCCCCCSc2nnc(NC(=O)CCCCCCC)s2)s1
T/C [15]: 90 % of control | T/C [16]: 90 % of control | T/C [17]: 95 % of control

COc1ccc(OC)c(NC=O)c1
T/C [13]: 98 % of control and 86 % of control | T/C [14]: 98 % of control and 93 % of control and 97 % of control | T/C [18]: 104 % of control and 97 % of control | T/C (dose: 100.0 mg/kg/injection, schedule: Q01DX009 (ip), vehicle: saline with Tween-80): 99 % of control and 100 % of control and 97 % of control

O=S(CCCl)CCCl
T/C (dose: 6.25 mg/kg/injection, schedule: Q01DX001 (ip), vehicle: saline): 117 % of control | T/C (dose: 12.5 mg/kg/injection, schedule: Q01DX001 (ip), vehicle: saline): 152 % of control

CCN1CC2(C)CCC(OC)C34C5CC6CCC(O)(C5C(=O)O6)C(C(O)C23)C14 (stereo unspecified)
T/C [8]: 100 % of control | T/C [9]: 98 % of control | T/C [19]: 95 % of control

O=C(NN=C1c2ccccc2-c2ccccc21)C(F)(F)F
T/C [15]: 100 % of control | T/C [16]: 100 % of control | T/C [17]: 100 % of control

COc1cc(Br)c(C2=C3c4cc(OC)c(OC)cc4CCN3C(=O)C2=O)cc1OC
T/C [2]: 99 % of control | T/C [3]: 93 % of control | T/C [4]: 90 % of control

CC(=O)NCCn1ccnc1
T/C [20]: 95 % of control | T/C [21]: 102 % of control | T/C [22]: 102 % of control

CS/N=N/N=C(\c1ccccc1)N1CCOCC1
T/C [23]: 103 % of control | T/C [24]: 97 % of control

CCOP(=S)(N/N=C/c1cccnc1)OCC
T/C [1]: 101 % of control | T/C (dose: 200.0 mg/kg/injection, schedule: Q01DX001 (ip), vehicle: Klucel (hydroxypropylcellulose) (HPC)): 101 % of control | T/C (dose: 400.0 mg/kg/injection, schedule: Q01DX001 (ip), vehicle: Klucel (hydroxypropylcellulose) (HPC)): 108 % of control

O=C1c2cc(Br)ccc2OC2CCON12 (stereo unspecified)
T/C [9]: 108 % of control | T/C [19]: 107 % of control | T/C [25]: 94 % of control

COc1ccc(NC(=O)Nc2ccc(C#N)cc2)cc1
T/C [23]: 101 % of control | T/C [24]: 93 % of control | T/C (dose: 240.0 mg/kg/injection, schedule: Q01DX005 (ip), vehicle: saline with Tween-80): 93 % of control

NC(Cc1ccc(OC2c3ccccc3-c3ccccc32)cc1)C(=O)O (stereo unspecified)
T/C [20]: 100 % of control | T/C [21]: 91 % of control | T/C [22]: 87 % of control

CCC(=O)NC(CC(C)C)C(=O)O (stereo unspecified)
T/C [11]: 111 % of control | T/C [12]: 95 % of control | T/C [20]: 89 % of control | T/C [22]: 107 % of control

COc1cc(Cl)c(CC(=O)c2c[nH]c3ccccc23)cc1OC
T/C (dose: 6.25 mg/kg/injection, schedule: Q01DX009 (ip), vehicle: saline with Tween-80): 94 % of control | T/C [13]: 92 % of control | T/C [14]: 100 % of control | T/C [18]: 93 % of control

COc1ccc(OC/C(C)=N\NS(=O)(=O)c2cc(Cl)c(Cl)cc2Cl)cc1
T/C (dose: 100.0 mg/kg/injection, schedule: Q01DX001 (ip), vehicle: gum acacia): 96 % of control | T/C (dose: 200.0 mg/kg/injection, schedule: Q01DX001 (ip), vehicle: gum acacia): 93 % of control | T/C (dose: 400.0 mg/kg/injection, schedule: Q01DX001 (ip), vehicle: gum acacia): 95 % of control

Cc1nn(C(=O)c2ccncc2)c(C)c1N=Nc1ccc(S(=O)(=O)Nc2ccccn2)cc1
T/C [9]: 100 % of control | T/C [19]: 91 % of control | T/C [25]: 92 % of control
